One series has as its system Nilaparvata lugens. The series can be described thus: Nilaparvata lugens test (foliar application), outdoor trial rice, Philippines. The format is in vivo. The procedure:
Action of the crystalline modification I of the compound of the formula (I) against plant-damaging insects/outdoor trial rice, Philippines
Nilaparvata lugens Test (Foliar Application)
To produce a suitable preparation of active compound, the oil-based suspension concentrate prepared according to Example 2.3 (OD 100 formulation) was diluted with water to the desired concentration. After the desired period of time, the kill in % was determined 100% means that all leafhoppers have been killed; 0% means that none of the leafhoppers have been killed.

The nature of series [1]: Solid-state properties of the crystalline modifications (stability, moisture uptake, grindability). The format is physicochemical.

Take `CN(Cc1ccc(Cl)nc1)C1=CC(=O)OC1` [crystalline modification I, 4-{[(6-chloropyrid-3-yl)methyl](methyl)amino}furan-2(5H)-one]: the “Kill rate in % after 14 days” value in the series on Nilaparvata lugens (Active compound concentration 200 g/ha, foliar application of OD 100 formulation of Example 2.3 diluted with water, rice, outdoor trial, 100% = all leafhoppers killed) amounted to 100%. Besides, the “activity against Nilaparvata lugens (in words)” value with Nilaparvata lugens (foliar application, outdoor trial rice) is on record as “good activity”. Also, in series [1], the “thermodynamic stability of the crystalline modification” value is on record as “thermodynamically stable”. Also, the grindability entry in series [1] (compared to other crystalline modifications) is listed as “easier to comminute/grind”. The “tendency to absorb atmospheric moisture” value in series [1] (compared to the crystalline modification II) is “reduced tendency to absorb atmospheric moisture”. The “conversion into another crystalline modification on storage” value in series [1] (prolonged storage) was “does not convert into another crystalline modification”.

With `CN(Cc1ccc(Cl)nc1)C1=CC(=O)OC1` [crystalline modification II, 4-{[(6-chloropyrid-3-yl)methyl](methyl)amino}furan-2(5H)-one, reference compound], the “thermodynamic stability of the crystalline modification” value in series [1] is given as “metastable”.

The record behind these values is patent publication US8324253B2, “Crystalline modification of 4-(N-methyl-Z-chloro-5pyridy methylamino)-2, 5-dihydrofuran-2-on” (Bayer Cropscience AG, priority 2006, dated 2012).
